Test results: article PMC3499949 (Journal of medicinal chemistry, 2012)

Assays:
[1] = molecular target: T1, hKOR (Homo sapiens, UniProt P41145); test: [35S]GTP-γ-S binding assay, antagonist shift design, KOR; type: biochemical
[2] = molecular target: T2, DOR (Mus musculus, UniProt P32300); test: [35S]GTP-γ-S binding assay, agonist stimulation, DOR; settings: for DOR EC50: stimulation of [35S]GTP-γ-S binding, no stim = no stimulation at 10 µM
[3] = molecular target: T3, hMOR (Homo sapiens, UniProt P35372); test: [35S]GTP-γ-S binding assay, antagonist shift design, MOR; type: biochemical
[4] = molecular target: T2, DOR; test: [35S]GTP-γ-S binding assay, antagonist shift design, DOR; type: biochemical
[5] = molecular target: T3, hMOR; test: [35S]GTP-γ-S binding assay, agonist stimulation, MOR; type: biochemical; settings: stimulation of [35S]GTP-γ-S binding; no stim = no stimulation at 10 µM
[6] = test system: mice; type: in vivo, Male ICR mice; settings: mouse, i.c.v.
[7] = test system: mice; test: 55 °C warm-water tail-withdrawal assay, i.c.v. administration; type: in vivo, Male ICR mice; settings: mouse
[8] = molecular target: T1, hKOR; test: [35S]GTP-γ-S binding assay, agonist stimulation, KOR; type: biochemical; settings: stimulation of [35S]GTP-γ-S binding; no stim = no stimulation at 10 µM
[9] = molecular target: hDOR (Homo sapiens, UniProt P41143); test: Radioligand displacement binding, [3H]DADLE, CHO cell membranes expressing hDOR; settings: 18a vs 17b, 18d vs 17f
Sequence of hDOR (P41143 whole entry): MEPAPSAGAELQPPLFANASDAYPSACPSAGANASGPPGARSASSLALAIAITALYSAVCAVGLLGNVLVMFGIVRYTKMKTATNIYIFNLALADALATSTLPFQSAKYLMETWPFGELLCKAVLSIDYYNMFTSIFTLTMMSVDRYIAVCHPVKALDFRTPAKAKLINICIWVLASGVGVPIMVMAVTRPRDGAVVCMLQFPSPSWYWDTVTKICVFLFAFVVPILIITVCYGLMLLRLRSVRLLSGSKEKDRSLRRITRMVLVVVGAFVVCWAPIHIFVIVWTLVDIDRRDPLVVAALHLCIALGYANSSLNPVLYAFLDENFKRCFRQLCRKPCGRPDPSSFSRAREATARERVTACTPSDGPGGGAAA

T2 sequence (P32300 whole entry): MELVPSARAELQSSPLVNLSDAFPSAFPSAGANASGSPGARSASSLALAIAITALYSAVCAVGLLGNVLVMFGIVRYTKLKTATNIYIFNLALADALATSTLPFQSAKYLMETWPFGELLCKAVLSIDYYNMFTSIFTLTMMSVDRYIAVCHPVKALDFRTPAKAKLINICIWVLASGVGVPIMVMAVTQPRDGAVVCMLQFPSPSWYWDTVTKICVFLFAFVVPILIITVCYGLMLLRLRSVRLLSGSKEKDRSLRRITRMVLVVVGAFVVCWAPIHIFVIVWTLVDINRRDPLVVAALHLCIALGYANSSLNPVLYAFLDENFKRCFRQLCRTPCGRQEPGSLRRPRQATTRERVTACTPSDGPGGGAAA
T3 sequence (P35372 whole entry): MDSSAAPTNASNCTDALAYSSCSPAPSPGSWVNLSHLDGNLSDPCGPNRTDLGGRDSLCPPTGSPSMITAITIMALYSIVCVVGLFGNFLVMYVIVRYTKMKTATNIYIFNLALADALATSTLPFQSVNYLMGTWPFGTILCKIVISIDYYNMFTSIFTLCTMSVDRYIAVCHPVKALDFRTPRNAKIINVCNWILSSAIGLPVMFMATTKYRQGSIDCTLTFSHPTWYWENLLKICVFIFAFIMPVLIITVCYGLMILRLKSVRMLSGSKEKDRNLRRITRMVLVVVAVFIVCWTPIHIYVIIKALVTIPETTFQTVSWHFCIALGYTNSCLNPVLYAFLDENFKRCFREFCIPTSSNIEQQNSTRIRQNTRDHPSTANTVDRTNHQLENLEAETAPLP
T1 sequence (P41145 whole entry): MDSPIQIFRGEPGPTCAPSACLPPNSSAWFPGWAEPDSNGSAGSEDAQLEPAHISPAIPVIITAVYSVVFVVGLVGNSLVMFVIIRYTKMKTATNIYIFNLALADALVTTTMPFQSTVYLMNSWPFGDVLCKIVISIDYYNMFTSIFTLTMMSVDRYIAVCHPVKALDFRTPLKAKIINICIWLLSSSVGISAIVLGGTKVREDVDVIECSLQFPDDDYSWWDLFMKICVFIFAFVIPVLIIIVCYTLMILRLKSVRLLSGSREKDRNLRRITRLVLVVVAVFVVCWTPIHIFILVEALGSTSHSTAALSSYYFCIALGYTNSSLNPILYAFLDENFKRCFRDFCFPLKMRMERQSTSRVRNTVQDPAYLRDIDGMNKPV

SMILES | Kb [1] [nM] | DOR EC50 [2] | Kb [3] [nM] | Kb [4] [nM] | MOR EC50 [5] | EC50 [2] [nM] | toxicity on repeated administration [6] | dose for maximal antinociception [7] [nmol] | fold weaker analgesic effect than other tested ligands ([7]; tail-withdrawal) [fold] | KOR EC50 [8] | fold weaker in binding to DOR compared to 14-benzyloxy counterpart [9] [fold]
Oc1ccc2c3c1O[C@H]1c4ncc(-c5ccc(Cl)cc5)cc4C[C@@]4(OCc5ccccc5)[C@@H](C2)N(CC2CC2)CC[C@]314 [17b, 14-(Benzyloxy)-5′-(4-chlorophenyl)-17-(cyclopropylmethyl)-6,7-didehydro-4,5α-epoxy-3-hydroxypyrido[2′,3′:6,7]morphinan] | 13 ± 3 | no stim | 11 ± 1 | 0.64 ± 0.11 | no stim | – | – | – | – | – | –
CN1CC[C@]23c4c5ccc(O)c4O[C@H]2c2ncc(-c4ccc(Cl)cc4)cc2C[C@@]3(OCc2ccccc2)[C@H]1C5 [17f, 14-Benzyloxy-5′-(4-chlorophenyl)-6,7-didehydro-4,5α-epoxy-3-hydroxy-17-methylpyrido[2′,3′:6,7]morphinan] | 83 ± 14 | – | – | 4.54 ± 0.81 | – | 11 ± 1 | – | – | – | – | –
CN1CC[C@]23c4c5ccc(O)c4O[C@H]2c2ncc(-c4ccc(Cl)cc4)cc2C[C@@]3(OC/C=C/c2ccccc2)[C@H]1C5 [17g, 5′-(4-Chlorophenyl)-14-cinnamyloxy-6,7-didehydro-4,5α-epoxy-3-hydroxy-17-methylpyrido[2′,3′:6,7]morphinan] | – | – | – | – | – | 0.59 ± 0.05 | undue toxicity | 1 | – | – | –
O=C(CCc1ccccc1)O[C@@]12Cc3cc(-c4ccc(Cl)cc4)cnc3[C@@H]3Oc4c(O)ccc5c4[C@@]31CCN(CC1CC1)[C@@H]2C5 [18c, 5′-(4-Chlorophenyl)-17-(cyclopropylmethyl)-6,7-didehydro-4,5α-epoxy-3-hydroxy-14-(3-phenylpropionyloxy)pyrido[2′,3′:6,7]morphinan] | 14 ± 2 | no stim | 13 ± 1.7 | 1.86 ± 0.21 | no stim | – | – | – | – | – | –
CO[C@@]12Cc3cc(-c4ccc(Cl)cc4)cnc3[C@@H]3Oc4c(O)ccc5c4[C@@]31CCN(C)[C@@H]2C5 [17e, 5′-(4-Chlorophenyl)-6,7-didehydro-4,5α-epoxy-3-hydroxy-14-methoxy-17-methylpyrido[2′,3′:6,7]morphinan] | 17 ± 0.13 | no stim | – | 1.6 ± 0.35 | – | – | – | 10 | 6 | – | –
CN1CC[C@]23c4c5ccc(O)c4O[C@H]2c2ncc(-c4ccc(Cl)cc4)cc2C[C@@]3(OC(=O)Cc2ccccc2)[C@H]1C5 [18e, 5′-(4-Chlorophenyl)-6,7-didehydro-4,5α-epoxy-3-hydroxy-17-methyl-14-(phenylacetoxy)pyrido[2′,3′:6,7]morphinan] | 198 ± 20 | – | – | 3.38 ± 0.34 | – | 19 ± 6 | – | – | – | – | –
O=C(Cc1ccccc1)O[C@@]12Cc3cc(-c4ccc(Cl)cc4)cnc3[C@@H]3Oc4c(O)ccc5c4[C@@]31CCN(CC1CC1)[C@@H]2C5 [18b, 5′-(4-Chlorophenyl)-17-(cyclopropylmethyl)-6,7-didehydro-4,5α-epoxy-3-hydroxy-14-(phenylacetoxy)pyrido[2′,3′:6,7]morphinan] | 7 ± 2 | no stim | 0.48 ± 0.06 | 0.37 ± 0.04 | no stim | – | – | – | – | – | –
CN1CC[C@]23c4c5ccc(O)c4O[C@H]2[C@@H](O)C=C[C@H]3[C@H]1C5 [Morphine, reference compound] | – | – | – | – | – | – | – | 10 | – | – | –
CN1CC[C@]23c4c5ccc(O)c4O[C@H]2c2ncc(-c4ccc(Cl)cc4)cc2C[C@@]3(OCCCc2ccccc2)[C@H]1C5 [17h, 5′-(4-Chlorophenyl)-6,7-didehydro-4,5α-epoxy-3-hydroxy-17-methyl-14-(3-phenylpropoxy)pyrido[2′,3′:6,7]morphinan] | 6.9 ± 0.02 | – | – | – | – | 0.27 ± 0.03 | undue toxicity | 1 | – | no stim | –
CO[C@@]12Cc3cc(-c4ccc(Cl)cc4)cnc3[C@@H]3Oc4c(O)ccc5c4[C@@]31CCN(CC1CC1)[C@@H]2C5 [17a, 5′-(4-Chlorophenyl)-17-(cyclopropylmethyl)-6,7-didehydro-4,5α-epoxy-3-hydroxy-14-methoxypyrido[2′,3′:6,7]morphinan] | – | no stim ^b | – | – | no stim | – | – | – | – | – | –
Oc1ccc2c3c1O[C@H]1c4ncc(-c5ccc(Cl)cc5)cc4C[C@@]4(OC/C=C/c5ccccc5)[C@@H](C2)N(CC2CC2)CC[C@]314 [17c, 5′-(4-Chlorophenyl)-14-cinnamyloxy-17-(cyclopropylmethyl)-6,7-didehydro-4,5α-epoxy-3-hydroxypyrido[2′,3′:6,7]morphinan] | – | no stim | – | – | no stim | – | – | – | – | – | –
O=C(O[C@@]12Cc3cc(-c4ccc(Cl)cc4)cnc3[C@@H]3Oc4c(O)ccc5c4[C@@]31CCN(CC1CC1)[C@@H]2C5)c1ccccc1 [18a, 14-Benzoyloxy-5′-(4-chlorophenyl)-17-(cyclopropylmethyl)-6,7-didehydro-4,5α-epoxy-3-hydroxypyrido[2′,3′:6,7]morphinan] | 126 ± 13 | no stim | 261 ± 36 | 218 ± 2 | no stim | – | – | – | – | no stim | 45
Oc1ccc2c3c1O[C@H]1c4ncc(-c5ccc(Cl)cc5)cc4C=C4[C@@H](C2)N(CC2CC2)CC[C@]431 [compound 23, 5′-(4-Chlorophenyl)-17-(cyclopropylmethyl)-3-hydroxy-6,7,8,14-tetradehydro-4,5α-epoxypyrido[2′,3′:6,7]morphinan] | 19 ± 3 | no stim | 8 ± 0.89 | 0.58 ± 0.1 | no stim | – | – | – | – | no stim | –
CN1CC[C@]23c4c5ccc(O)c4O[C@H]2c2ncc(-c4ccc(Cl)cc4)cc2C[C@@]3(OC(=O)c2ccccc2)[C@H]1C5 [18d, 14-Benzoyloxy-5′-(4-chlorophenyl)-6,7-didehydro-4,5α-epoxy-3-hydroxy-17-methylpyrido[2′,3′:6,7]morphinan] | 426 ± 47 | no stim | 1270 ± 166 | 45 ± 6 | – | – | – | – | – | no stim | 10
CN1CC[C@]23c4c5ccc(O)c4O[C@H]2c2ncc(-c4ccc(Cl)cc4)cc2C[C@@]3(OC(=O)CCc2ccccc2)[C@H]1C5 [18f, 5′-(4-Chlorophenyl)-6,7-didehydro-4,5α-epoxy-3-hydroxy-17-methyl-14-(3-phenylpropionyloxy)pyrido[2′,3′:6,7]morphinan] | 18 ± 0.2 | – | – | 1.64 ± 0.3 | – | 5.52 ± 0.53 | – | – | – | – | –
Oc1ccc2c3c1O[C@H]1c4ncc(-c5ccc(Cl)cc5)cc4C[C@@]4(OCCCc5ccccc5)[C@@H](C2)N(CC2CC2)CC[C@]314 [17d, 5′-(4-Chlorophenyl)-17-(cyclopropylmethyl)-6,7-didehydro-4,5α-epoxy-3-hydroxy-14-(3-phenylpropoxy)pyrido[2′,3′:6,7]morphinan] | – | no stim | – | 0.091 ± 0.01 | – | – | – | 1 | – | – | –
